From ChEMBL document CHEMBL3639022, “Azolopyridin-3-one derivatives as inhibitors of lipases and phospholipases” (2015)

Target: T1, Endothelial lipase (Homo sapiens, UniProt Q9Y5X9)
T1 sequence (Q9Y5X9 whole entry): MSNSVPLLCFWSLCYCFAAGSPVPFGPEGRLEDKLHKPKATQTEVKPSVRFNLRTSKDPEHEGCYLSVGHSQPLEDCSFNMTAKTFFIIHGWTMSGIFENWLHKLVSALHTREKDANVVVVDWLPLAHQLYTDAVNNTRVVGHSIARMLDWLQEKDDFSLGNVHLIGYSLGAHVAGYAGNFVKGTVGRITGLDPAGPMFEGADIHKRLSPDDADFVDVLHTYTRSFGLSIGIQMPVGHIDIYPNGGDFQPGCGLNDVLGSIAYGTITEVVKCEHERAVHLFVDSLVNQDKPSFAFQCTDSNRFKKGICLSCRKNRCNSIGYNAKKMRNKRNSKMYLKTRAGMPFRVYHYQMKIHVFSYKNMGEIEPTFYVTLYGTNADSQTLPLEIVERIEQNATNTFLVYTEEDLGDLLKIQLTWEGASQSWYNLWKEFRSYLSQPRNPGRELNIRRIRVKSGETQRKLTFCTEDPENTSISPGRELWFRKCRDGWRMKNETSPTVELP
Assay: Enzyme Assay: For characterization of the enzymatic activity of endothelial lipase and the effect of inhibitors, the phospholipase-specific substrate 1,2-bis(4,4-difluoro-5,7-dimethyl-4-bora-3a,4a-diaza-s-indacene-3-undecanoyl)-sn-glycero-3-phosphocholine (manufacturer: Molecular Probes) was used. Hydrolysis of the A1 ester bond of this phospholipid by the enzyme releases the fluorescent dye Bodipy, which can be detected by measuring the fluorescence after separation by thin-layer chromatography on an HPTLC plate (silica gel 60, Merck) or directly in the reaction vessel. To prepare the substrate solution, 100 ug of 1,2-bis(4,4-difluoro-5,7-dimethyl-4-bora-3a,4a-diaza-s-indacene-3-undecanoyl)-sn-glycero-3-phosphocholine (manufacturer: Molecular Probes) were dissolved in 100 ul of DMSO and taken up in 2.4 mg of tripalmitin (Sigma) in 393 ul of chloroform which contained 20 mg/ml DOPcholine (1,2-dioleoyl-sn-glycero-3-phosphocholine).

IC50: 138 nM
Structure (SMILES): O=C(NCc1ccccc1OC(F)F)n1sc2ncccc2c1=O
